Laboratory results: patent US20220050096A1, “ANALYTE-SENSITIVE PROBES AND CONTACT LENS FOR DIAGNOSIS OF OCULAR PATHOLOGIES” (University Of Maryland, Baltimore, priority 2020, published 2022)

Assay: Sodium-dependent intensity decays of SG in 20 mM MOPS buffer, 8 mM KCl
Type: physicochemical
Set-up: key to α1 / α2 / α3 / f1 / f2 / f3: fractional amplitudes (α) and intensity fractions (f); Σαi=1.0, Σfi=1.0
Description: Fluorescence Spectroscopic Measurements. Fluorescence intensities and intensity decays were measured using a Varian™ Eclipse 4 spectrofluorometer and a FluoTime300 instrument from PicoQuant™ (Berlin, Germany) and analyzed with the EasyTau™ software. The excitation source was a 473 nm laser diode with a repetition rate of 40 MHZ and a pulse width less than 100 ps. In other embodiments, the excitation source for SG-PL was at 495 nm from a Solea™ supercontinuum laser (PicoQuant™, Germany) and a 375 nm laser diode (PDL 375, PicoQuant™), a repetition rate of 40 MHz, and a pulse width less than 100 ps. Some intensity and lifetime measurements for SG-PL (as indicated) were performed using Alba V confocal fluorescence lifetime microscopy, FLIM (ISS, Urbana, Ill.), with excitation source of a 473 nm laser diode with a repetition rate of 40 MHz and a pulse width near 250 ps.
Intensity decays were measured at the emission maximum with the band of 10 to 20 nm, analyzed in terms of the multi-exponential model:
I(t)=Σαi exp(−t/ti) (equation 1)
where ti are the individual decay times and αi the initial time-zero amplitudes. The mean decay time can be represented in two ways. The average lifetime is given by:
where Σαi=1.0 and Σfi=1.0. The term fi=αi τi is proportional to the fractional contribution of each component to the total intensity decay. The term τi/Σαi τi is the fractional contribution to the steady state emission. Here, we use the amplitude-weighted lifetime given by
which is appropriate when the emission is from a single fluorophore with a changing quantum yield. For a single exponential decay, the lifetime is given by τ=1.0/(knr+Γ) and the quantum yield is given by Q=Γ/(knr+Γ) where knr is the sum of all non-radiative decay rates and Γ is the radiative decay rate. The value of Γ is determined by the molecular extinction coefficient that remains constant under most conditions. For a single type of fluorophore with a constant value of Γ the normalized αi values represent the molecular fraction of each decay time component. The value of αi and τi were determined by non-linear least squares fitting using PicoQuant™ software.
Three decay time components were required for the intensity decays. Fluorescence anisotropy decays were determined by individual measurements of the polarized intensity decays with corrections for the G-factor. Resolution of multi-exponential decays is not necessary. The average lifetime can be used as a single measurement. […]

[1] = NaCl 0 mM, 20 mM MOPS buffer 8 mM KCl
[2] = NaCl 5 mM, 20 mM MOPS buffer 8 mM KCl
[3] = NaCl 10 mM, 20 mM MOPS buffer 8 mM KCl
[4] = NaCl 20 mM, 20 mM MOPS buffer 8 mM KCl
[5] = NaCl 30 mM, 20 mM MOPS buffer 8 mM KCl
[6] = NaCl 50 mM, 20 mM MOPS buffer 8 mM KCl
[7] = NaCl 90 mM, 20 mM MOPS buffer 8 mM KCl
[8] = NaCl 150 mM, 20 mM MOPS buffer 8 mM KCl
[9] = NaCl 210 mM, 20 mM MOPS buffer 8 mM KCl

f1 (NaCl 0 mM, MOPS buffer): 0.272
f2 (NaCl 0 mM, MOPS buffer): 0.174
f3 (NaCl 0 mM, MOPS buffer): 0.554
α1 (NaCl 0 mM, MOPS buffer): 0.703
α2 (NaCl 0 mM, MOPS buffer): 0.155
α3 (NaCl 0 mM, MOPS buffer): 0.142
τ1 (NaCl 0 mM, MOPS buffer): 0.36 ns
τ2 (NaCl 0 mM, MOPS buffer): 1.03 ns
τ3 (NaCl 0 mM, MOPS buffer): 3.59 ns
τf (NaCl 0 mM, MOPS buffer): 2.27 ns
τα (NaCl 0 mM, MOPS buffer): 0.92 ns
f1 [1]: 0.272
f2 [1]: 0.174
f3 [1]: 0.554
α1 [1]: 0.703
α2 [1]: 0.155
α3 [1]: 0.142
τ1 [1]: 0.36 ns
τ2 [1]: 1.03 ns
τ3 [1]: 3.59 ns
τf [1]: 2.27 ns
τα [1]: 0.92 ns
f1 (NaCl 5 mM, MOPS buffer): 0.111
f2 (NaCl 5 mM, MOPS buffer): 0.223
f3 (NaCl 5 mM, MOPS buffer): 0.666
α1 (NaCl 5 mM, MOPS buffer): 0.439
α2 (NaCl 5 mM, MOPS buffer): 0.244
α3 (NaCl 5 mM, MOPS buffer): 0.317
τ1 (NaCl 5 mM, MOPS buffer): 0.39 ns
τ2 (NaCl 5 mM, MOPS buffer): 1.44 ns
τ3 (NaCl 5 mM, MOPS buffer): 3.28 ns
τf (NaCl 5 mM, MOPS buffer): 2.55 ns
τα (NaCl 5 mM, MOPS buffer): 1.57 ns
f1 [2]: 0.111
f2 [2]: 0.223
f3 [2]: 0.666
α1 [2]: 0.439
α2 [2]: 0.244
α3 [2]: 0.317
τ1 [2]: 0.39 ns
τ2 [2]: 1.44 ns
τ3 [2]: 3.28 ns
τf [2]: 2.55 ns
τα [2]: 1.57 ns
f1 (NaCl 10 mM, MOPS buffer): 0.078
f2 (NaCl 10 mM, MOPS buffer): 0.224
f3 (NaCl 10 mM, MOPS buffer): 0.699
α1 (NaCl 10 mM, MOPS buffer): 0.341
α2 (NaCl 10 mM, MOPS buffer): 0.276
α3 (NaCl 10 mM, MOPS buffer): 0.383
τ1 (NaCl 10 mM, MOPS buffer): 0.40 ns
τ2 (NaCl 10 mM, MOPS buffer): 1.43 ns
τ3 (NaCl 10 mM, MOPS buffer): 3.22 ns
τf (NaCl 10 mM, MOPS buffer): 2.60 ns
τα (NaCl 10 mM, MOPS buffer): 1.77 ns
f1 [3]: 0.078
f2 [3]: 0.224
f3 [3]: 0.699
α1 [3]: 0.341
α2 [3]: 0.276
α3 [3]: 0.383
τ1 [3]: 0.40 ns
τ2 [3]: 1.43 ns
τ3 [3]: 3.22 ns
τf [3]: 2.60 ns
τα [3]: 1.77 ns
f1 (NaCl 20 mM, MOPS buffer): 0.094
f2 (NaCl 20 mM, MOPS buffer): 0.355
f3 (NaCl 20 mM, MOPS buffer): 0.551
α1 (NaCl 20 mM, MOPS buffer): 0.324
α2 (NaCl 20 mM, MOPS buffer): 0.353
α3 (NaCl 20 mM, MOPS buffer): 0.323
τ1 (NaCl 20 mM, MOPS buffer): 0.57 ns
τ2 (NaCl 20 mM, MOPS buffer): 2.00 ns
τ3 (NaCl 20 mM, MOPS buffer): 3.39 ns
τf (NaCl 20 mM, MOPS buffer): 2.63 ns
τα (NaCl 20 mM, MOPS buffer): 1.99 ns
f1 [4]: 0.094
f2 [4]: 0.355
f3 [4]: 0.551
α1 [4]: 0.324
α2 [4]: 0.353
α3 [4]: 0.323
τ1 [4]: 0.57 ns
τ2 [4]: 2.00 ns
τ3 [4]: 3.39 ns
τf [4]: 2.63 ns
τα [4]: 1.99 ns
f1 (NaCl 30 mM, MOPS buffer): 0.068
f2 (NaCl 30 mM, MOPS buffer): 0.295
f3 (NaCl 30 mM, MOPS buffer): 0.638
α1 (NaCl 30 mM, MOPS buffer): 0.255
α2 (NaCl 30 mM, MOPS buffer): 0.349
α3 (NaCl 30 mM, MOPS buffer): 0.396
τ1 (NaCl 30 mM, MOPS buffer): 0.54 ns
τ2 (NaCl 30 mM, MOPS buffer): 1.72 ns
τ3 (NaCl 30 mM, MOPS buffer): 3.27 ns
τf (NaCl 30 mM, MOPS buffer): 2.63 ns
τα (NaCl 30 mM, MOPS buffer): 2.03 ns
f1 [5]: 0.068
f2 [5]: 0.295
f3 [5]: 0.638
α1 [5]: 0.255
α2 [5]: 0.349
α3 [5]: 0.396
τ1 [5]: 0.54 ns
τ2 [5]: 1.72 ns
τ3 [5]: 3.27 ns
τf [5]: 2.63 ns
τα [5]: 2.03 ns
f1 (NaCl 50 mM, MOPS buffer): 0.081
f2 (NaCl 50 mM, MOPS buffer): 0.349
f3 (NaCl 50 mM, MOPS buffer): 0.570
α1 (NaCl 50 mM, MOPS buffer): 0.259
α2 (NaCl 50 mM, MOPS buffer): 0.380
α3 (NaCl 50 mM, MOPS buffer): 0.361
τ1 (NaCl 50 mM, MOPS buffer): 0.66 ns
τ2 (NaCl 50 mM, MOPS buffer): 1.95 ns
τ3 (NaCl 50 mM, MOPS buffer): 3.35 ns
τf (NaCl 50 mM, MOPS buffer): 2.64 ns
τα (NaCl 50 mM, MOPS buffer): 2.12 ns
f1 [6]: 0.081
f2 [6]: 0.349
f3 [6]: 0.570
α1 [6]: 0.259
α2 [6]: 0.380
α3 [6]: 0.361
τ1 [6]: 0.66 ns
τ2 [6]: 1.95 ns
τ3 [6]: 3.35 ns
τf [6]: 2.64 ns
τα [6]: 2.12 ns
f1 (NaCl 90 mM, MOPS buffer): 0.074
f2 (NaCl 90 mM, MOPS buffer): 0.380
f3 (NaCl 90 mM, MOPS buffer): 0.545
α1 (NaCl 90 mM, MOPS buffer): 0.242
α2 (NaCl 90 mM, MOPS buffer): 0.416
α3 (NaCl 90 mM, MOPS buffer): 0.342
τ1 (NaCl 90 mM, MOPS buffer): 0.64 ns
τ2 (NaCl 90 mM, MOPS buffer): 1.93 ns
τ3 (NaCl 90 mM, MOPS buffer): 3.36 ns
τf (NaCl 90 mM, MOPS buffer): 2.61 ns
τα (NaCl 90 mM, MOPS buffer): 2.11 ns
f1 [7]: 0.074
f2 [7]: 0.380
f3 [7]: 0.545
α1 [7]: 0.242
α2 [7]: 0.416
α3 [7]: 0.342
τ1 [7]: 0.64 ns
τ2 [7]: 1.93 ns
τ3 [7]: 3.36 ns
τf [7]: 2.61 ns
τα [7]: 2.11 ns
f1 (NaCl 150 mM, MOPS buffer): 0.116
f2 (NaCl 150 mM, MOPS buffer): 0.699
f3 (NaCl 150 mM, MOPS buffer): 0.185
α1 (NaCl 150 mM, MOPS buffer): 0.305
α2 (NaCl 150 mM, MOPS buffer): 0.605
α3 (NaCl 150 mM, MOPS buffer): 0.091
τ1 (NaCl 150 mM, MOPS buffer): 0.81 ns
τ2 (NaCl 150 mM, MOPS buffer): 2.48 ns
τ3 (NaCl 150 mM, MOPS buffer): 4.38 ns
τf (NaCl 150 mM, MOPS buffer): 2.64 ns
τα (NaCl 150 mM, MOPS buffer): 2.15 ns
f1 [8]: 0.116
f2 [8]: 0.699
f3 [8]: 0.185
α1 [8]: 0.305
α2 [8]: 0.605
α3 [8]: 0.091
τ1 [8]: 0.81 ns
τ2 [8]: 2.48 ns
τ3 [8]: 4.38 ns
τf [8]: 2.64 ns
τα [8]: 2.15 ns
f1 (NaCl 210 mM, MOPS buffer): 0.074
f2 (NaCl 210 mM, MOPS buffer): 0.377
f3 (NaCl 210 mM, MOPS buffer): 0.549
α1 (NaCl 210 mM, MOPS buffer): 0.224
α2 (NaCl 210 mM, MOPS buffer): 0.424
α3 (NaCl 210 mM, MOPS buffer): 0.352
τ1 (NaCl 210 mM, MOPS buffer): 0.70 ns
τ2 (NaCl 210 mM, MOPS buffer): 1.88 ns
τ3 (NaCl 210 mM, MOPS buffer): 3.29 ns
τf (NaCl 210 mM, MOPS buffer): 2.57 ns
τα (NaCl 210 mM, MOPS buffer): 2.12 ns
f1 [9]: 0.074
f2 [9]: 0.377
f3 [9]: 0.549
α1 [9]: 0.224
α2 [9]: 0.424
α3 [9]: 0.352
τ1 [9]: 0.70 ns
τ2 [9]: 1.88 ns
τ3 [9]: 3.29 ns
τf [9]: 2.57 ns
τα [9]: 2.12 ns
Compound: COc1cc(N2CCOCCOCCN(c3cc(OC)c(NC(=O)c4ccc(-c5c6cc(Cl)c(=O)cc-6oc6cc([O-])c(Cl)cc56)c(C(=O)[O-])c4)cc3OC)CCOCC2)c(OC)cc1NC(=O)c1ccc(-c2c3cc(Cl)c(=O)cc-3oc3cc([O-])c(Cl)cc23)c(C(=O)[O-])c1.C[N+](C)(C)C.C[N+](C)(C)C.C[N+](C)(C)C.C[N+](C)(C)C [SG]
